According to patent publication EP0152574A1, “6-Ethoxy-4-methyl-benzothiazol-2(3H)-one, processes for its preparation and medicaments containing this compound” (priority 1983, dated 1985):

Tests used:
Hefefieber der Ratte = assay: Antipyretic action against yeast-induced fever; format: in vivo; design: unit not given here; details: rat, oral, 2 h after dosing; dose lowering yeast fever by 1°C; limits in brackets
Protocol: 2. Die Prüfung der antipyretischen Wirkung erfolgte gegen das durch subcutane Gabe von 100 mg Hefe/100 g Tier ausgelöste Fieber an 120-150 g schweren männlichen Ratten. Die Prüfsubstanzen wurden 4 Stunden nach Hefegabe als Verreibung in l%iger Methylzellulose (1,0 ml/100 g) per Schlundsonde verabfolgt. Aus der 2 Stunden danach gefundenen Veränderung der Rektaltemperatur gegenüber der der Kontrolltiere wurde nach linearer Regressionsanalyse eine ED-1,0°C als jene Dosis berechnet, die das Hefefieber um 1°C senkte.

in vivo = details: rat, oral, 14 days observation, limits in brackets
Protocol: 3.) Die Bestimmung der akuten Toxizität erfolgte an Ratten beider Geschlechter mit einem Gewicht zwischen 120 und 150 g. Die Prüfsubstanzen wurden als Verreibung in l%iger Methylzellulose (2,0 ml/100 g Tier) per Schlundsonde appliziert. Die Berechnung der LD50 erfolgte nach […] u.

[1] = system: Glutathiongehalt der Mäuseleber; assay: Effect on liver glutathione content (ELLMAN method); format: in vivo, Maus
Protocol: 4.) Der Einfluß auf den Glutathion-Gehalt der Leber wurde an männlichen Mäusen mit einem Gewicht zwischen 25 und 30 g untersucht. 2 Stunden nach oraler Gabe der Prüfsubstanz (als Verreibung in l%iger Methylzellulose, 0,2 ml/10 g Tier) wurde die Leber entnommen.
Für die prognostische Beurteilung einer Hepatotoxizität ist die Erschöpfung der Glutathionvorräte in der Leber ein geeigneter Indikator.

[2] = system: Entzündungsschmerz der Ratte; assay: Inflammatory pain test according to RANDALL and SELITTO (yeast-inflamed paw, pain threshold); format: in vivo; details: 1.5 h; rat, oral, 90 min after dosing; dose raising pain threshold by 50 %; confidence limits in brackets
Protocol: l.) Die Prüfung der Wirkung gegen den Entzündungsschmerz der Ratte erfolgte mit der Methode nach RANDALL u. SELITTO (Arch. int. Pharmacodyn. 111, 409 (1957)). Die Prüfsubstanzen wurden männlichen Ratten mit einem Gewicht zwischen 100 und 130 g als Verreibung in 1%iger Methylzellulose (1,0 ml/100 g Tier) 90 Minuten nach der subplantaren Hefegabe per Schlundsonde verabfolgt. Aus der 90 Minuten nach Gabe der verschiedenen Dosen der Prüfsubstanz gemessenen Schmerzschwelle wurde nach linearer Regressionsanalyse eine ED50 als jene Dosis ermittelt, die eine Anhebung der Schmerzschwelle um 50 % bewirkt.

SMILES	ED-1,0 °C (Hefefieber der Ratte)	LD50 at 336 h (in vivo) [mg/kg]	Verminderung des Leberzellglutathion ([1]; in vivo, po, 1000 mg/kg)	red. GSH x̄ ([1]; in vivo, po, 1000 mg/kg)	Δ gegen Kontrollen ([1]; in vivo, po, 1000 mg/kg)	ED50 [2] [mg/kg]	Δ gegen Kontrollen ([1]; in vivo, po, 160 mg/kg)	Δ gegen Kontrollen ([1]; in vivo, po, 200 mg/kg)	Δ gegen Kontrollen ([1]; in vivo, po, 250 mg/kg)	Δ gegen Kontrollen ([1]; in vivo, po, 315 mg/kg)	red. GSH x̄ ([1]; mouse liver, 2 h after oral 1000 mg/kg)	Verminderung des Leberzellglutathion ([1]; single oral dose 1000 mg/kg, mouse, critical range = depletion by more than 50 %) [%]
COc1cc(C)c2[nH]c(=O)sc2c1 [Substanz B, 6-Methoxy-4-methyl-benzothiazol-2(3H)-on]	29,6 (25,0-34,0)	7580	> 50%	3,42	- 56,4%	23	–	–	–	–	–	–
CC(=O)Nc1ccc(O)cc1 [Substanz D, p-Hydroxy-acetanilid]	123 (84,0-155)	3960	–	–	–	215	- 32,7%	- 51,3%	- 65,7%	- 82,4%	–	–
CCOc1cc(C)c2[nH]c(=O)sc2c1 [Substanz A, 6-Ethoxy-4-methyl-benzothiazol-2(3H)-on]	31,2 (25,1-36,5)	> 4000	deutlich schwächer und unterhalb des kritischen Bereiches	5,02	- 36,0%	24.1	–	–	–	–	–	–
Cc1cc(C)c2[nH]c(=O)sc2c1 [Substanz C, 4,6-Dimethyl-benzothiazol-2(3H)-on]	18,1 (11,3-23,7)	–	–	–	–	49.7	–	–	–	–	2,90 mMol/g	> 50
